Laboratory results taken from patent US20230416248A1, “COMPOUNDS AND USES THEREOF” (Foghorn Therapeutics Inc., priority 2020, published 2023).

Columns and labels:
BRG-1 = target: T1, BRG-1 (Homo sapiens, UniProt P51532); assay: ATPase catalytic activity of BRG-1, ADP-Glo in vitro biochemical assay; details: ATPase catalytic activity, ADP-Glo; 30 nM BRG-1, 400 μM ATP; read-out: BRG1 IC50
T1 construct: made in house; host or cells: High Five insect cells
Summary of the method: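 ADP produced by BRG-1 was quantified by luciferase luminescence. A 60 min room-temperature ADP-to-ATP conversion followed a 40 min ATP-depletion step.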

BRM = target: T2, BRM (Homo sapiens, UniProt P51531); assay: ATPase catalytic activity of BRM, ADP-Glo in vitro biochemical assay; details: for IC50: ATPase catalytic activity, ADP-Glo, 30 nM BRM, 400 μM ATP; for Ratio*: ratio of BRG1 IC50 to BRM IC50
T2 construct: made in house; host or cells: High Five insect cells
Summary of the method: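 ADP-Glo luminescence, after depletion of leftover ATP and conversion of ADP, reported the activity. The 1 h room-temperature reaction held 400 μM ATP, 20 nM salmon sperm DNA and 30 nM BRM in 20 mM Tris pH 8, 20 mM MgCl2, 50 mM NaCl, 0.1% Tween-20, 1 mM DTT.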

T2 sequence (P51531 whole entry): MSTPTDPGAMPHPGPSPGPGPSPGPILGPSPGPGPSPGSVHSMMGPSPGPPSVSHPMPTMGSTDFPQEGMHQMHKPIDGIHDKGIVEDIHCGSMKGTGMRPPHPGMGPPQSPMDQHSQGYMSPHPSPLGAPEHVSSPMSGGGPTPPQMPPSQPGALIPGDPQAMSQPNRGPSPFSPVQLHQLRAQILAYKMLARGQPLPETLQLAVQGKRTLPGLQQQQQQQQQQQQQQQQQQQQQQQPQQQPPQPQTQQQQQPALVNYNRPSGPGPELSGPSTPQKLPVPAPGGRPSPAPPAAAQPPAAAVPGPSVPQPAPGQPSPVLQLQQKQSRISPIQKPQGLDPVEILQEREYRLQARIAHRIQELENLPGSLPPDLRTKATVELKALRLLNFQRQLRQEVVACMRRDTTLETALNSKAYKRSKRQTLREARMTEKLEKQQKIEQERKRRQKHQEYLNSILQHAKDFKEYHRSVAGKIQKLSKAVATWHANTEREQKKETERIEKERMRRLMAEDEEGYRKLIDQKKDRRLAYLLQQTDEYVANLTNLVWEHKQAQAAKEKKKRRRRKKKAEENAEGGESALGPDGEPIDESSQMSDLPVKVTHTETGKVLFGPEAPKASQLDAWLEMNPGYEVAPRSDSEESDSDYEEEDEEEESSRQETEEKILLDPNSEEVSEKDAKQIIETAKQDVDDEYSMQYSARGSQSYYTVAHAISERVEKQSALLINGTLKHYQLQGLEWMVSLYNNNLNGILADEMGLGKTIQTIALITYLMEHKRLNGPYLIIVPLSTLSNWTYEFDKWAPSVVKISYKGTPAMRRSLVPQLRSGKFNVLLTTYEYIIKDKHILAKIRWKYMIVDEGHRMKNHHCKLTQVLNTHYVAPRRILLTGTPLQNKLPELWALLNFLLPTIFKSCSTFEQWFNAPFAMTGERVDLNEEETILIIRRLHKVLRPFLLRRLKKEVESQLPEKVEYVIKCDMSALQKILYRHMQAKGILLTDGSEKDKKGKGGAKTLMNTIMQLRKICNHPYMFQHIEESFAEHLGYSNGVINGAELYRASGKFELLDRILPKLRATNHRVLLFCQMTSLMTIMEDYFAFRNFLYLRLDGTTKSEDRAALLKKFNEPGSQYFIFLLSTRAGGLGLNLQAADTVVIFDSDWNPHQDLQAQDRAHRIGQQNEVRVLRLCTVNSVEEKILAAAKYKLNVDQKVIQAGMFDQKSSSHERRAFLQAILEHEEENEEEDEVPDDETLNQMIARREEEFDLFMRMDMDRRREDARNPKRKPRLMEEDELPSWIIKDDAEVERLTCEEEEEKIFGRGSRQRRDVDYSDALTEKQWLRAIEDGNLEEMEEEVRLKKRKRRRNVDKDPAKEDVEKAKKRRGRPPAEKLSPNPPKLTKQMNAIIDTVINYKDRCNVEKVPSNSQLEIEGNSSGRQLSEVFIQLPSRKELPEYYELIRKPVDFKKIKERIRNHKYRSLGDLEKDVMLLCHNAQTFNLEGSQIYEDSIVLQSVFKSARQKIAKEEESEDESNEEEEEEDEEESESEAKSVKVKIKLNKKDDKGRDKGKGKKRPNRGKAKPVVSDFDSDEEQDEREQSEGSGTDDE
T1 sequence (P51532 whole entry): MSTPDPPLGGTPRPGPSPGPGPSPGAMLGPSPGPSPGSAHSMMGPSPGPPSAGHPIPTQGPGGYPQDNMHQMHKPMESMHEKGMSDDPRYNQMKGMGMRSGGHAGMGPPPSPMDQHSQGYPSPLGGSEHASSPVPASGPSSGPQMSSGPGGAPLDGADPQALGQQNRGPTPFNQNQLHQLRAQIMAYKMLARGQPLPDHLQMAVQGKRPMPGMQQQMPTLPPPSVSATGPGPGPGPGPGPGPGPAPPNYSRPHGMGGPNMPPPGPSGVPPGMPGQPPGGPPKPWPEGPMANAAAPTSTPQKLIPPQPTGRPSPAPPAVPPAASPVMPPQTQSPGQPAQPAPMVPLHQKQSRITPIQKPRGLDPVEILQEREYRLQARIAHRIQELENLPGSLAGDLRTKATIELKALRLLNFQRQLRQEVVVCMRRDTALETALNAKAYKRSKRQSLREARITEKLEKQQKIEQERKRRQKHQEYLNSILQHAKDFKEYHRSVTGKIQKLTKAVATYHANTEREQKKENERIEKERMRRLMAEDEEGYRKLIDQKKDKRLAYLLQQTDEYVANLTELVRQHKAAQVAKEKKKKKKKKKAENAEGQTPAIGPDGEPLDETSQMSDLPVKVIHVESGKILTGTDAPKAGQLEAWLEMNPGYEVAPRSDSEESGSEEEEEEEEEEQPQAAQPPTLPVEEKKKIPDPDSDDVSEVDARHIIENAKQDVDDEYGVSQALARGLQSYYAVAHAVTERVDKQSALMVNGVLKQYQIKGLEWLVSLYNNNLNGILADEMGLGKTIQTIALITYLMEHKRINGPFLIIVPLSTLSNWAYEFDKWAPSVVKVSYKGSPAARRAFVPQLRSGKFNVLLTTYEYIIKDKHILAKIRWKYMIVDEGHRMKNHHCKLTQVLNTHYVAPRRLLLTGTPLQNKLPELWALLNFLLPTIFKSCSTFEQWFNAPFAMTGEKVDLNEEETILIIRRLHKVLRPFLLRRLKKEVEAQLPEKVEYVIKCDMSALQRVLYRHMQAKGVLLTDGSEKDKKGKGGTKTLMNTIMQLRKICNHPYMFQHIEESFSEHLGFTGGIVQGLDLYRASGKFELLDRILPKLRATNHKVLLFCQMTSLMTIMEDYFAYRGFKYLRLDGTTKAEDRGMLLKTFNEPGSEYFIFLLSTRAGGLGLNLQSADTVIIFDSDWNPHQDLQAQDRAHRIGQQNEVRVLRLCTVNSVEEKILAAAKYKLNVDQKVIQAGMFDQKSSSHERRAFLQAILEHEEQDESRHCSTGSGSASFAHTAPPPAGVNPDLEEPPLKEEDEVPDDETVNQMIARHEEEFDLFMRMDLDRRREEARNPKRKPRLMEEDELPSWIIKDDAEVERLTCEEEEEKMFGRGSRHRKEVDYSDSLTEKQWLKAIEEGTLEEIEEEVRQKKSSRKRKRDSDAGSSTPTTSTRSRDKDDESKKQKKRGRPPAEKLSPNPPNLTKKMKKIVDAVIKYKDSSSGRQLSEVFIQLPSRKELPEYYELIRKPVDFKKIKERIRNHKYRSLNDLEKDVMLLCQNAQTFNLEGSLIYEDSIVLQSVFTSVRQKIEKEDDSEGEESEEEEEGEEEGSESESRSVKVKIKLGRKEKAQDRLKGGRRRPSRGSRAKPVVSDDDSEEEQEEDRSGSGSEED

| IC50 (BRG-1) [µM] | IC50 (BRM) [µM] | Ratio* (BRM) | Compound |
| --- | --- | --- | --- |
| 0.176 | 0.0132 | 13.32 | O=C(NCc1cc2nc(N3CCC4(CC4)c4cccnc43)ccc2cn1)c1ccc2c(c1)S(=O)(=O)CCOC2 [Compound 600] |
| 1.91 | 0.215 | 8.88 | O=C(NCc1cc2nc(N3CCCc4ccc(OCC(F)F)nc43)ccc2cn1)c1ccc2c(c1)S(=O)(=O)CCOC2 [Compound 601] |
| 0.158 | 0.0158 | 9.98 | COc1cc2c(nc1C)N(c1ccc3cnc(CNC(=O)c4ccc5c(c4)S(=O)(=O)CCOC5)cc3n1)CCC2 [Compound 602] |
| 0.117 | 0.0107 | 10.88 | O=C(NCc1cc2nc(N3CCCc4ccc(F)nc43)ccc2cn1)c1ccc2c(c1)S(=O)(=O)CCOC2 [Compound 603] |
| 0.702 | 0.0446 | 15.74 | CO[C@@H](C)c1cnc2c(c1)CCCN2c1ccc2cnc(CNC(=O)c3ccc4c(c3)S(=O)(=O)CCOC4)cc2n1 [Compound 607] |
| 0.952 | 0.0445 | 21.42 | CO[C@H](C)c1cnc2c(c1)CCCN2c1ccc2cnc(CNC(=O)c3ccc4c(c3)S(=O)(=O)CCOC4)cc2n1 [Compound 608] |
| 0.158 | 0.0168 | 9.37 | O=C(NCc1cc2nc(N3CCCc4c(OC(F)F)ccnc43)ccc2cn1)c1ccc2c(c1)S(=O)(=O)CCOC2 [Compound 620] |

More lines, now with the values behind:

| Compound | IC50 (BRG-1) [µM] | IC50 (BRM) [µM] | Ratio* (BRM) |
| --- | --- | --- | --- |
| O=C(NCc1cc2nc(N3CCCc4ccc(COC5CC5)nc43)ccc2cn1)c1ccc2c(c1)S(=O)(=O)CCOC2 [Compound 598] | 0.991 | 0.0293 | 33.79 |
| COCc1nc2c(cc1Cl)CCCN2c1ccc2cnc(CNC(=O)c3ccc4c(c3)S(=O)(=O)CCOC4)cc2n1 [Compound 599] | 0.737 | 0.0588 | 12.54 |
| O=C(NCc1cc2nc(-c3cccc(N4CC(C5COC5)C4)n3)ccc2cn1)c1ccc2c(c1)S(=O)(=O)CCOC2 [Compound 604] | 0.0569 | 0.0057 | 10.00 |
| COCc1ccc2c(c1)N(c1ccc3cnc(CNC(=O)c4ccc5c(c4)S(=O)(=O)CCOC5)cc3n1)CCC2 [Compound 605] | 0.187 | 0.0117 | 16.04 |
| O=C(NCc1cc2nc(N3CCOc4ccc(C5CC5)cc43)ccc2cn1)c1ccc2c(c1)S(=O)(=O)CCOC2 [Compound 606] | 0.125 | 0.0075 | 16.72 |
| C[C@@H]1CN(c2cccc(-c3ccc4cnc(CNC(=O)c5ccc6c(c5)S(=O)(=O)[C@@H](C)COC6)cc4n3)c2F)C[C@H](C)O1 [Compound 609] | 1.11 | 0.0392 | 28.40 |
| C[C@@H]1CN(c2nccc(-c3ccc4cnc(CNC(=O)c5ccc6c(c5)S(=O)(=O)[C@@H](C)COC6)cc4n3)c2F)C[C@H](C)O1 [Compound 610] | 1.11 | 0.0513 | 21.62 |
| CC1Cc2ccc(-c3ccc4cnc(CNC(=O)c5ccc6c(c5)S(=O)(=O)CCOC6)cc4n3)nc2N(C)C1 (stereo not drawn) [Compound 612] | 0.35 | 0.0266 | 13.16 |
| CO[C@H]1COc2c(-c3ccc4cnc(CNC(=O)c5ccc6c(c5)S(=O)(=O)CCOC6)cc4n3)cccc2N(C)C1 [Compound 613] | 2.22 | 0.213 | 10.41 |
| CO[C@@H]1COc2c(-c3ccc4cnc(CNC(=O)c5ccc6c(c5)S(=O)(=O)CCOC6)cc4n3)cccc2N(C)C1 [Compound 614] | 0.862 | 0.0951 | 9.06 |
| CCN1CCN(c2ccc3cnc(CNC(=O)c4ccc5c(c4)S(=O)(=O)CCOC5)cc3n2)c2ncccc21 [Compound 615] | 0.358 | 0.0221 | 16.22 |
| O=C(NCc1cc2nc(N3CCOc4ccc(C5CC5)nc43)ccc2cn1)c1ccc2c(c1)S(=O)(=O)CCOC2 [Compound 616] | 0.442 | 0.0082 | 54.03 |
| CC(F)(F)c1ccc2c(n1)N(c1ccc3cnc(CNC(=O)c4ccc5c(c4)S(=O)(=O)CCOC5)cc3n1)CCO2 [Compound 617] | 2.54 | 0.0904 | 28.12 |
| Cc1cnc2c(c1)N(C)CCN2c1ccc2cnc(CNC(=O)c3ccc4c(c3)S(=O)(=O)CCOC4)cc2n1 [Compound 618] | 0.126 | 0.009 | 14.00 |
| COc1cnc2c(c1)OCCN2c1ccc2cnc(CNC(=O)c3ccc4c(c3)S(=O)(=O)CCOC4)cc2n1 [Compound 619] | 0.0627 | 0.0056 | 11.17 |
| COC[C@H]1CCCN(c2cccc(-c3ccc4cnc(CNC(=O)c5ccc6c(c5)S(=O)(=O)CCOC6)cc4n3)n2)C1 [Compound 622] | 0.109 | 0.0274 | 3.98 |
